# In patent publication US6667037B1, “Isolated peptides which bind to HLA-B35 molecules, larger peptides which contain these, nucleic acid molecules encoding peptides, and uses thereof” (Ludwig Institute for Cancer Research, priority 1998, dated 2003):
# Where a SMILES comes first, the peptide text is derived from it.
# Tests used:
# [1] = tested on: LG2-EBV cells (express HLA-B*3503); test: 51Cr release assay: lysis of peptide-pulsed LG2-EBV cells by CTL 35-24; assay type: cell-based, human; conditions: LG2-EBV cells (HLA-B*3503)
# From the text: (§1) The same TNF assay as is described in example 2, supra, was used, except fragments of tyrosinase cDNA, rather than complete cDNA molecules, were used. Three fragments were positive, and these corresponded to nucleotides 1-1086, 427-1134, and 703-1134 of the coding region of tyrosinase cDNA. A fragment corresponding to position 574-831 was negative, leading to the conclusion that nucleotides 831-1086 encoded for the presented antigen. These correspond to amino acids 270-362 of tyrosinase, whose amino acid sequence is known. This amino acid sequence was compared to known peptides, which bind to HLA-B*3501, and its binding motif, as described by Rammensee, et al., supra, incorporated by reference. This reference describes a binding motif for HLA-B35 which is a nonapeptide, where Pro is found at position 2, and Tyr is found at position 9. For decapeptides, Ramensee, et al, gives P2 and Y10 as anchors. HLA-B*3501 was used because no information was found in the art for HLA-B*3503. Ramensee et al. also gives Phe, Met, Leu, and Ile as auxiliary anchors for P9. The peptide defined by amino acid sequence LPSSADVEF (SEQ ID NO: 1) satisfies these requisites, and is found at amino acids 312-320 of tyrosinase. […] The ^51Cr release was measured after 3.5 hours.
# [2] = tested on: HA7-EBV cells (express HLA B*3501); test: 51Cr release assay: lysis of peptide-pulsed HA7-EBV cells by CTL 35-24; assay type: cell-based, human; conditions: HA7-EBV cells (HLA B*3501)
# From the text: as §1
# [3] = varying concentrations of peptide
compound,measurement,setting,value
"CC(C)C[C@H](N)C(=O)N1CCC[C@H]1C(=O)N[C@@H](CO)C(=O)N[C@@H](CO)C(=O)N[C@@H](C)C(=O)N[C@@H](CC(=O)O)C(=O)N[C@H](C(=O)N[C@@H](CCC(=O)O)C(=O)N[C@@H](Cc1ccccc1)C(=O)O)C(C)C [SEQ ID NO: 1, LPSSADVEF] (H-LPSSADVEF-OH; N-terminus and C-terminus assumed)",EC50,"[1]; 30 minutes with peptide, then CTL 35-24, effector:target 5:1, 51Cr release after 3.5 hours, read-out: dose of peptide giving half maximal lysis",1 nM
same,lysis of peptide-pulsed cells by CTL 35-24,[1]; [3],provoked lysis
same,EC50,"[2]; 30 minutes with peptide, then CTL 35-24, 51Cr release after 3.5 hours, read-out: dose of peptide giving half maximal lysis",~10 nM
same,lysis of peptide-pulsed cells by CTL 35-24,[2]; [3],provoked lysis
